Legend:
[1] = target: T1, rV2 (Rattus norvegicus, UniProt Q00788); test: Luciferase reporter gene assay, rV2; assay type: cell-based; conditions: rV2, relative to dDAVP
T1 construct: host or cells: HEK-293 cells, transient
Method: (§1) Cell Maintenance. HEK-flp-in cells were maintained in Dulbecco's modified Eagle's medium (DMEM) containing 10% (v/v) heat-inactivated fetal bovine serum (FBS), 4 mM GlutaMAX™—I, and 25 μg/mL hygromycin B at 37° C. under 5% CO2 in a humidified atmosphere. […] On the day prior to the assay, cells were removed from culture flasks using trypsin EDTA, harvested in the medium used for cell culture, and seeded into 384-well (for V1a) or 96-well (for other receptors) poly-d-Iysine-treated plates at 7.5×10^4 cells in 20 μL/well for rV1a, 2.5×10^4 cells in 20 μL/well for hV1a, and 4-5×10^4 cells in 100 μL/well for all other receptors.
(§2) Functional Cell-Based Assays. To detect activity generated by binding of the test compounds to endogenous rV1a receptors or the stably expressed hV1a receptors, Fluorometric Imaging Plate Reader (FLlPR) calcium assays were performed. Briefly, real-time fluorescence of an intracellular calcium-sensitive dye was measured immediately upon addition of the test compound at various concentrations. […] Reporter gene assays were used to monitor agonist-induced activity at the human and rat V1b, V2, and OT receptors. […] Expression of the luciferase gene was determined after 5-h incubation with various concentrations of test compound. […] For V1a receptor response, area under the curve of the real-time calcium traces, expressed as relative fluorescence units, was determined. […]

[2] = test system: adult male Wistar rats; test: Skin blood flow and blood lactate in anesthetized rats (IV infusion); assay type: in vivo, rat
Method: This study was performed over multiple experiments using a total of 48 adult male Wistar rats. […] Compounds were infused via an IV catheter at six sequentially increasing doses.
On the day of experimentation animals were anesthetized and instrumented. A tracheostomy was performed to allow assisted respiration and three catheters were placed. Laser Doppler probes were positioned on a shaved portion of the animal's lower abdominal skin for blood-flow measurements. Ventilation was initiated, and baseline readings for the primary parameter of skin blood flow (SBF) were recorded. Readings for the secondary parameters were also recorded: (1) blood lactate concentration, (2) mean arterial pressure (MAP), and (3) blood pH. Data collection was performed continuously for SBF and MAP using NOTOCORD-hem™ (Instem), and blood samples were taken at each compound dose and immediately analyzed using an i-STAT® meter.
After the final dose administration, animals were euthanized and a final SBF measurement was recorded to detect any signal from the flow probe after the animal's heart stopped beating to control for a signal not attributed to blood flow. Animal body temperature, pulse, and ventilation adequacy were monitored throughout the procedure.

[3] = target: T2, rOTR (Rattus norvegicus, UniProt P70536); conditions: relative to carbetocin
T2 sequence (P70536 1-388): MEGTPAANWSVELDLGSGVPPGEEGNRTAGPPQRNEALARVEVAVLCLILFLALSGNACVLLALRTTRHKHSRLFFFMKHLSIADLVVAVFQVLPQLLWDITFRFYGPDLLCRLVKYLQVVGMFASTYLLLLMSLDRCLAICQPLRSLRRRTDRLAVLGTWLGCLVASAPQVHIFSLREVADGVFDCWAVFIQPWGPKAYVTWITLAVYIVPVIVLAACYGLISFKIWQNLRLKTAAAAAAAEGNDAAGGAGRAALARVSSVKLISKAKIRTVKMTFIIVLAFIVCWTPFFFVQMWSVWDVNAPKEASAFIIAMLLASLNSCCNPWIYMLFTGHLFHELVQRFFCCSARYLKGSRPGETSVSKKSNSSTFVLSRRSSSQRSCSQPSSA
Method: as §1, §2

T1 sequence (Q00788 whole entry): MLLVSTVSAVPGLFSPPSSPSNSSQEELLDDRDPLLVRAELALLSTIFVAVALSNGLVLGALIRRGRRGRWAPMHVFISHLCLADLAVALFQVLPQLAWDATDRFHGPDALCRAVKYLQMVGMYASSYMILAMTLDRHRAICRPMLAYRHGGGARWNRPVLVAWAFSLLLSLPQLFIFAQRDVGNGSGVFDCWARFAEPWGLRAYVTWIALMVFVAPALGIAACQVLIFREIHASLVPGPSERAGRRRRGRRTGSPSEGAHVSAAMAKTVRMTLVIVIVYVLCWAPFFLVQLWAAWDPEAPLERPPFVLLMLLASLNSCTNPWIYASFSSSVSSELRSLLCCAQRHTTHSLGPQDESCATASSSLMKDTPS

## NC(=O)CC[C@@H]1NC(=O)[C@H](Cc2ccccc2)NC(=O)[C@H](Cc2ccc(O)cc2)NC(=O)[C@@H](N)CSSC[C@@H](C(=O)N2CCC[C@H]2C(=O)N[C@@H](CCCN=C(N)N)C(=O)NCC(N)=O)NC(=O)[C@H](CC(N)=O)NC1=O [AVP, arginine vasopressin]
[1]
  % MPE Mean: 98 % MPE
[2]; anesthetized rats, IV infusion
  ED50, skin blood flow: 12.6 pmol/kg/min
[2]; rats, IV 3 pmoL/kg/min
  mean blood lactate concentration: 1.34 mM
[2]; rats, IV 600 pmoL/kg/min
  mean blood lactate concentration: 4.27 mM
[2]; rats, IV, compared with vehicle
  blood lactate at highest doses tested: significantly elevated
[2]; rats, intravenous administration
  decrease of skin blood flow from baseline (approximate maximal): about 90%
[3]
  % MPE Mean: 82 % MPE

From patent US20260137790A1, “MIXED VASOPRESSIN RECEPTOR AGONIST-ANTAGONIST FOR MODULATING MEAN ARTERIAL PRESSURE” (FERRING B.V., priority 2022, published 2026)
